Values joined by “and” are separate entries in the source; they are usually repeats but may differ in a detail not shown here. Identical values can stand only once. Like-named read-outs stand apart in the source and are kept apart here. Values belong to the compound of their own block, whether it stands above or below them.
How the values were obtained:
[1] = humans; cited from earlier work
[2] = tested on: UGT enzymes of human liver microsomes; experiment: Inhibition of 7-HFC glucuronidation in human liver microsomes; format: biochemical; conditions: 7-HFC 50 μM, human liver microsomes 100 μg/ml, 15 min
[3] = tested on: T1, UGT enzymes of human liver microsomes; experiment: as above; format: biochemical; conditions: for % of control metabolism (SD, n = 3), 7-HFC glucuronidation: 7-HFC 50 μM, human liver microsomes 100 μg/ml, 15 min
T1 construct: percentage of control metabolism, 7-HFC glucuronidation; percentage of control metabolism, 7-HFC glucuronidation

[4] = tested on: UGT enzymes of human liver microsomes; experiment: Inhibition of raloxifene glucuronidation (G1, G2) in human liver microsomes; format: biochemical
From the text: Compounds were eluted using a binary solvent gradient system. […] Solvent B was methanol. […] Detection was at 280 nm.

[5] = target: T2, UGT enzymes of human liver microsomes (Homo sapiens, UniProt P16662); experiment: Inhibition of zidovudine glucuronidation in human liver microsomes; format: biochemical; conditions: liver lot 062101
T2 construct: residual metabolism (percentage of control), zidovudine glucuronidation; other: liver lot 062101; residual metabolism (percentage of control), zidovudine glucuronidation; residual metabolism (percentage of control)
T2 sequence (P16662 1-529): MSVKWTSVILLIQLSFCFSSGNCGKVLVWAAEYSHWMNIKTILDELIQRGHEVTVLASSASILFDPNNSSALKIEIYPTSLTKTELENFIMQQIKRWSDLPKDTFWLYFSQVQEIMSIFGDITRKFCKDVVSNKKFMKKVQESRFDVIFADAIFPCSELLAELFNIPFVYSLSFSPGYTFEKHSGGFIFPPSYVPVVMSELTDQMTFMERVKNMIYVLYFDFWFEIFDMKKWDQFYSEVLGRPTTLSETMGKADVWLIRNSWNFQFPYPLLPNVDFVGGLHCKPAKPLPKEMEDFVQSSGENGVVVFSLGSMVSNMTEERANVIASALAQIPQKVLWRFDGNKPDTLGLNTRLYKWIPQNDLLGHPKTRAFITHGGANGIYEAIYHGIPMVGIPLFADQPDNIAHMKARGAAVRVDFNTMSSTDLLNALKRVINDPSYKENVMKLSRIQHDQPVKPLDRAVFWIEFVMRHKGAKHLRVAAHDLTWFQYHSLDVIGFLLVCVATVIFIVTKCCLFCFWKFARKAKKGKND
Method: Compounds were eluted using a binary solvent gradient system where solvent A was dilute phosphoric acid (pH 3) and solvent B was acetonitrile.
Standardized incubations utilized 500 μM zidovudine substrate, 1 mg/ml microsomal protein, 5 mM UDPGA and a 30 min incubation time. […] Int.

[6] = tested on: UGT enzymes of pooled human jejunum microsomes; experiment: Inhibition of zidovudine glucuronidation in pooled human jejunum microsomes; format: biochemical
Method: Increasing the microsomal protein concentration to 1 mg/ml and extending the incubation time to 60 min provided meaningful metabolite levels for inhibition studies.

[7] = tested on: T3, UGT enzymes of human liver microsomes; experiment: Inhibition of 2ME2 glucuronidation (MG1, MG2) in human liver microsomes; format: biochemical; conditions: liver 062101, 2ME2 50 μM
T3 construct: other: liver 062101
From the text: (§1) Compounds were eluted using a binary solvent gradient system where solvent A was dilute phosphoric acid (pH 3) and solvent B was 80:20 acetonitrile-methanol. […] Detection was at 280 nm.

[8] = tested on: UGT enzymes of pooled human jejunum microsomes; experiment: Inhibition of 2ME2 glucuronidation (MG1) in pooled human jejunum microsomes; format: biochemical; conditions: jejunum HJ61, 2ME2 50 μM
From the text: as §1

UGT1A1 = target: T4, UGT1A1 (Homo sapiens, UniProt P22309); experiment: Inhibition of raloxifene glucuronidation by recombinant UGT1A1 Supersomes; conditions: for Inhibition of raloxifene glucuronidation, G1, UGT1A1 / Inhibition of raloxifene glucuronidation, G2, UGT1A1: raloxifene 50 μM, 250 μg/ml Supersomes, 1 mM UDPGA, 15 min; for % of control metabolism, raloxifene G1 / % of control metabolism, raloxifene G2: UGT1A1
T4 sequence (P22309 26-533): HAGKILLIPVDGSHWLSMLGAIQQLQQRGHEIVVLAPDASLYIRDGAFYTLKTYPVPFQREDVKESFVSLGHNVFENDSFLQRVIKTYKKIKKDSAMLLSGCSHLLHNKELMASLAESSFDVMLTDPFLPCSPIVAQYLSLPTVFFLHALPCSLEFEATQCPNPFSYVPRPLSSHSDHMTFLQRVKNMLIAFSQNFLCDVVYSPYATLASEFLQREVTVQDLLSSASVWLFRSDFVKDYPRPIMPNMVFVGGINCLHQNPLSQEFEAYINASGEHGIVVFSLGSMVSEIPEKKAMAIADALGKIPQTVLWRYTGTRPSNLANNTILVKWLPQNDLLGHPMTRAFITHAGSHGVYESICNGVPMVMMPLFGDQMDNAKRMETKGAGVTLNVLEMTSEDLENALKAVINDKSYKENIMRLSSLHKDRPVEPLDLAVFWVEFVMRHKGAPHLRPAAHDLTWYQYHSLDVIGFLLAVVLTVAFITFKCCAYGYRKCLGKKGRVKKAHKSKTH
Method: Compounds were eluted using a binary solvent gradient system. Solvent A was water brought to pH 8 with NH4OH. Solvent B was methanol. Solvent flow rate was 1 ml/min and the column temperature was maintained at 50° C. Detection was at 280 nm. […] The system was then returned to the initial conditions and equilibrated for 3 min.

[9] = G1, inhibitor 500 μM, raloxifene 50 μM, human liver microsomes 250 μg/ml, 15 min
[10] = G2, inhibitor 500 μM, raloxifene 50 μM, human liver microsomes 250 μg/ml, 15 min
[11] = raloxifene 50 μM, inhibitor 25 μM
[12] = raloxifene 50 μM, inhibitor 50 μM
[13] = raloxifene 50 μM, inhibitor 100 μM
[14] = inhibitor column headed only "μM" (between 25 μM and 5 μM)

Structure (SMILES): CCc1c2c(nc3ccc(OC(=O)N4CCC(N5CCCCC5)CC4)cc13)-c1cc3c(c(=O)n1C2)COC(=O)[C@]3(O)CC [irinotecan]
absolute oral bioavailability [1]: approximately 13%

% of control metabolism (SD, n = 3), 7-HFC glucuronidation ([2]; inhibitor 1000 μM): 32 (1) %
% of control metabolism (SD, n = 3), 7-HFC glucuronidation ([2]; inhibitor 2000 μM): 26 (1) %
% of control metabolism (SD, n = 3), 7-HFC glucuronidation ([3]; inhibitor 100 μM): 86 (2) %
% of control metabolism (SD, n = 3), 7-HFC glucuronidation ([3]; inhibitor 200 μM): 72 (2) %
% of control metabolism (SD, n = 3), 7-HFC glucuronidation ([3]; inhibitor 500 μM): 53 (2), % and 53 (1) %
% of control metabolism (SD, n = 3), raloxifene glucuronide G1 [4, 9]: 76 (1) %
% of control metabolism (SD, n = 3), raloxifene glucuronide G2 [4, 10]: 69 (0) %
Structure (SMILES): CC(=O)OC1CC(C)CCC1C(C)C (single isomer, unassigned; (-)) [(−)-Menthyl acetate]

Structure (SMILES): C#C[C@]1(O)CC[C@H]2[C@@H]3CCc4cc(O)ccc4[C@H]3CC[C@@]21C [17-α-Ethinylestradiol, 17-α-ethinylestradiol, reference compound]
percentage of control metabolism, 7-HFC glucuronidation ([3]; inhibitor 500 μM): 72 (1) %
% of control metabolism (SD, n = 3), 7-HFC glucuronidation ([3]; inhibitor 500 μM): 72 (1) %
% of control metabolism (SD, n = 3), raloxifene glucuronide G1 ([4]; G1, inhibitor 25 μM, raloxifene 50 μM, human liver microsomes 250 μg/ml, 15 min): 66 (3) %
% of control metabolism (SD, n = 3), raloxifene glucuronide G1 ([4]; G1, inhibitor 50 μM, raloxifene 50 μM, human liver microsomes 250 μg/ml, 15 min): 42 (2) %
% of control metabolism (SD, n = 3), raloxifene glucuronide G1 ([4]; G1, inhibitor 100 μM, raloxifene 50 μM, human liver microsomes 250 μg/ml, 15 min): 31 (2) %
% of control metabolism (SD, n = 3), raloxifene glucuronide G1 [4, 9]: 2 (0) %
% of control metabolism (SD, n = 3), raloxifene glucuronide G2 ([4]; G2, inhibitor 25 μM, raloxifene 50 μM, human liver microsomes 250 μg/ml, 15 min): 80 (3) %
% of control metabolism (SD, n = 3), raloxifene glucuronide G2 ([4]; G2, inhibitor 50 μM, raloxifene 50 μM, human liver microsomes 250 μg/ml, 15 min): 60 (2) %
% of control metabolism (SD, n = 3), raloxifene glucuronide G2 ([4]; G2, inhibitor 100 μM, raloxifene 50 μM, human liver microsomes 250 μg/ml, 15 min): 56 (3) %
% of control metabolism (SD, n = 3), raloxifene glucuronide G2 [4, 10]: 6 (0) %
% of control metabolism, raloxifene G1 [4, 11]: 66 (3) %
% of control metabolism, raloxifene G2 [4, 11]: 80 (3) %
% of control metabolism, raloxifene G1 [4, 12]: 42 (2) %
% of control metabolism, raloxifene G2 [4, 12]: 60 (2) %
% of control metabolism, raloxifene G1 [4, 13]: 31 (2) %
% of control metabolism, raloxifene G2 [4, 13]: 56 (3) %
residual metabolism (percentage of control), zidovudine glucuronidation ([5]; inhibitor 50 μM): 54 (2) %
residual metabolism (percentage of control), zidovudine glucuronidation ([5]; inhibitor 100 μM): 40 (2) %
residual metabolism (percentage of control), zidovudine glucuronidation ([5]; inhibitor 200 μM): 24 (1) %
residual metabolism (percentage of control), zidovudine glucuronidation ([5]; inhibitor 500 μM): 13 (1) % and 10 (1) %
residual metabolism (percentage of control), zidovudine ([6]; inhibitor 100 μM): 30 (1) %
residual metabolism (% of control), 2ME2 MG1 ([7]; inhibitor 25 μM): 74 (1) %
residual metabolism (% of control), 2ME2 MG2 ([7]; inhibitor 25 μM): 62 (1) %
residual metabolism (% of control), 2ME2 MG1 ([7]; inhibitor 50 μM): 64 (2) %
residual metabolism (% of control), 2ME2 MG2 ([7]; inhibitor 50 μM): 41 (3) %
residual metabolism (% of control), 2ME2 MG1 ([7]; inhibitor 100 μM): 48 (0) %
residual metabolism (% of control), 2ME2 MG2 ([7]; inhibitor 100 μM): 4 (0) %
residual metabolism (% of control), 2ME2 MG1 ([8]; inhibitor 50 μM): 109 (5) %
residual metabolism (% of control), 2ME2 MG1 ([8]; inhibitor 100 μM): 99 (2) %
Inhibition of raloxifene glucuronidation, G1, UGT1A1 (UGT1A1; inhibitor 25 μM): 53 (0)
Inhibition of raloxifene glucuronidation, G1, UGT1A1 (UGT1A1; inhibitor 50 μM): 33 (1)
Inhibition of raloxifene glucuronidation, G1, UGT1A1 (UGT1A1; [14]): 81 (0)
Inhibition of raloxifene glucuronidation, G2, UGT1A1 (UGT1A1; inhibitor 25 μM): 72 (1)
Inhibition of raloxifene glucuronidation, G2, UGT1A1 (UGT1A1; inhibitor 50 μM): 58 (3)
Inhibition of raloxifene glucuronidation, G2, UGT1A1 (UGT1A1; [14]): 91 (1)
% of control metabolism, raloxifene G1 (UGT1A1; inhibitor 25 μM): 53 (0) %
% of control metabolism, raloxifene G2 (UGT1A1; inhibitor 25 μM): 72 (1) %
% of control metabolism, raloxifene G1 (UGT1A1; inhibitor 50 μM): 33 (1) %
% of control metabolism, raloxifene G2 (UGT1A1; inhibitor 50 μM): 58 (3) %

Structure (SMILES): C[C@H](CCc1ccccc1)NC[C@H](O)c1ccc(O)c(C(N)=O)c1 [dilevalol]
absolute oral bioavailability [1]: 11-29%

Structure (SMILES): CC(C)[C@@H]1CC[C@@H](C)C[C@H]1O [(L)-Menthol]
% of control metabolism (SD, n = 3), 7-HFC glucuronidation ([2]; inhibitor 1000 μM): 72 (1) %
% of control metabolism (SD, n = 3), 7-HFC glucuronidation ([2]; inhibitor 2000 μM): 53 (0) %
% of control metabolism (SD, n = 3), 7-HFC glucuronidation ([3]; inhibitor 500 μM): 75 (2), % and 80 (2) %
% of control metabolism (SD, n = 3), raloxifene glucuronide G1 [4]: 108 (4) %
% of control metabolism (SD, n = 3), raloxifene glucuronide G2 [4]: 97 (2) %

residual metabolism (percentage of control), zidovudine glucuronidation ([5]; inhibitor 200 μM): 63 (6) %
residual metabolism (percentage of control), zidovudine glucuronidation ([5]; inhibitor 500 μM): 43 (1) % and 37 (4) %
residual metabolism (percentage of control), zidovudine glucuronidation ([5]; inhibitor 1000 μM): 25 (2) %
residual metabolism (percentage of control), zidovudine ([6]; inhibitor 500 μM): 32 (3) %
residual metabolism (% of control), 2ME2 MG1 ([7]; inhibitor 50 μM): 96 (2) %
residual metabolism (% of control), 2ME2 MG2 ([7]; inhibitor 50 μM): 86 (1) %
residual metabolism (% of control), 2ME2 MG1 ([7]; inhibitor 100 μM): 92 (2) %
residual metabolism (% of control), 2ME2 MG2 ([7]; inhibitor 100 μM): 74 (3) %
residual metabolism (% of control), 2ME2 MG1 ([8]; inhibitor 50 μM): 98 (4) %
residual metabolism (% of control), 2ME2 MG1 ([8]; inhibitor 100 μM): 125 (7) %
Structure (SMILES): CC1CCC(C(C)C)C(O)C1 (stereo not shown) [Menthol]

% of control metabolism (SD, n = 3), 7-HFC glucuronidation ([2]; inhibitor 1000 μM): 47 (1) %
% of control metabolism (SD, n = 3), 7-HFC glucuronidation ([2]; inhibitor 2000 μM): 35 (1) %
% of control metabolism (SD, n = 3), 7-HFC glucuronidation ([3]; inhibitor 100 μM): 84 (1) %
% of control metabolism (SD, n = 3), 7-HFC glucuronidation ([3]; inhibitor 200 μM): 75 (2) %
% of control metabolism (SD, n = 3), 7-HFC glucuronidation ([3]; inhibitor 500 μM): 64 (0), % and 63 (1) %
% of control metabolism (SD, n = 3), raloxifene glucuronide G1 [4, 9]: 92 (2) %
% of control metabolism (SD, n = 3), raloxifene glucuronide G2 [4, 10]: 94 (2) %
Structure (SMILES): O=C(O)c1ccccc1O [Salicylic acid]

Source: patent US20030215462A1, “Use of UGT inhibitors to increase bioavailability” (priority 2001, published 2003)
